Earlier results, collected in US20050032867A1, “Pharmaceutical composition comprising a 5ht1 receptor agonist” (priority 2001, published 2005).

## CNS(=O)(=O)Cc1ccc2[nH]cc(CCN(C)C)c2c1 [sumatriptan]
Administered orally
  effect of food on the overall bioavailability: no significant effect
Administered orally with food
  delay of Tmax (time to maximum observed serum concentrations) by food: about 0.5 hour
